According to ChEMBL document CHEMBL1135380, “Synthesis and structure-activity relationship of 2-(aminoalkyl)-2,3,3a,8-tetrahydrodibenzo[c,f]isoxazolo[2,3-a]azepine derivatives: a novel series of 5-HT(2A/2C) receptor antagonists. Part 1” (Bioorg Med Chem Lett, 2002):

Experiments:
[1] = molecular target: T1, 5-hydroxytryptamine receptor 2C (Homo sapiens, UniProt P28335); test: Binding affinity for human cloned 5-hydroxytryptamine 2C receptor expressed in CHO cells using [3H]mesulergine as radioligand; assay type: cell-based
T1 sequence (P28335 whole entry): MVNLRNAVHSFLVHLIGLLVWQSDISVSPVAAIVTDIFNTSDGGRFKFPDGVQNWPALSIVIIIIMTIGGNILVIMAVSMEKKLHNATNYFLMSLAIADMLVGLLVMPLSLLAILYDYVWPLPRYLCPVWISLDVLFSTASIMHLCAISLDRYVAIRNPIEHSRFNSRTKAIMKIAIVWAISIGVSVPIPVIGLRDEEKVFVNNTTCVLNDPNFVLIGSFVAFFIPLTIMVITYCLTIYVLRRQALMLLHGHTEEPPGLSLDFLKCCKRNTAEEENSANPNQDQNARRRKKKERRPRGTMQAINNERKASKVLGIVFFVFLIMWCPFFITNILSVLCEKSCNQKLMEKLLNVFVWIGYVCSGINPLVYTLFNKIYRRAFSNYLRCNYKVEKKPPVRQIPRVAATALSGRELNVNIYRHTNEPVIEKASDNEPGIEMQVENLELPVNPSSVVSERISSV

[2] = molecular target: 5-hydroxytryptamine receptor 2A (Homo sapiens, UniProt P28223); test: biochemical; assay type: cell-based, L929
Description: Binding affinity for human cloned 5-hydroxytryptamine 2A receptor expressed in L929 cells using [125I]R91150 as radioligand

Rattus norvegicus = test: In vivo activity in mCPP challenge test were performed in male Wistar rats by subcutaneous administration; assay type: functional; conditions: Rattus norvegicus, sc; read-out: ED50
Histamine H1 receptor = Histamine H1 receptor (Homo sapiens, UniProt P35367); test: Binding affinity for human cloned Histamine H1 receptor expressed in CHO cells using [3H]pyrilamine as radioligand; assay type: cell-based
[3] = molecular target: T2, 5-hydroxytryptamine receptor 2C (Rattus norvegicus) (UniProt P08909); test: In vivo activity in rat mCPP challenge test following p.o. administration.; assay type: functional, organism-based
T2 sequence (whole entry): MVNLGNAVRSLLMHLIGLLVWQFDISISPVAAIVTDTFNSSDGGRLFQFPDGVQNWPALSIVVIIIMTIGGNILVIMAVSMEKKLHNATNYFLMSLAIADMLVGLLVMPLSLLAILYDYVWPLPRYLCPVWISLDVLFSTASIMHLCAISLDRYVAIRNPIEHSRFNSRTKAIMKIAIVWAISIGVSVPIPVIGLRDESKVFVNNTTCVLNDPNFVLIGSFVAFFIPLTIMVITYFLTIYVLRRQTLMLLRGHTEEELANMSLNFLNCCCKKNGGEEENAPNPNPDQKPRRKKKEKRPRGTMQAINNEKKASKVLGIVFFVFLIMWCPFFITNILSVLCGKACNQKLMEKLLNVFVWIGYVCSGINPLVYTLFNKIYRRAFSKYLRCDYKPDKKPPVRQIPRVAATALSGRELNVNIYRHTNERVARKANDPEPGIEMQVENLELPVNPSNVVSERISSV

[4] = molecular target: 5-hydroxytryptamine receptor 1D (Homo sapiens, UniProt P28221); test: Binding affinity for human cloned 5-hydroxytryptamine 1D receptor
[5] = molecular target: T3, Alpha-2C adrenergic receptor (Homo sapiens, UniProt P18825); test: Binding affinity for human cloned Alpha-2C adrenergic receptor
T3 sequence (P18825 whole entry): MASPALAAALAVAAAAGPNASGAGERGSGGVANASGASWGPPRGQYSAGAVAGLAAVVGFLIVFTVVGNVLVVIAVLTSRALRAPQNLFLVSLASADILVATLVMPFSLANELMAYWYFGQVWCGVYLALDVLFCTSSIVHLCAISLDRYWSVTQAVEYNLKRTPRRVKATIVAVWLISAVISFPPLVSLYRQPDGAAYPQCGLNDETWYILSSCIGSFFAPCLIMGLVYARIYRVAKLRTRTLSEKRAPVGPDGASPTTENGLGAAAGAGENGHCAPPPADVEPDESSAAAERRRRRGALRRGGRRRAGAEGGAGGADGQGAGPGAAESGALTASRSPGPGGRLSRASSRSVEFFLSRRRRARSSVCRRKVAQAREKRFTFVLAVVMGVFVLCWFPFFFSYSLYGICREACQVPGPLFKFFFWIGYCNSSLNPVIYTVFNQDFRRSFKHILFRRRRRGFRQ

D(2) dopamine receptor [6] = molecular target: D(2) dopamine receptor (Homo sapiens, UniProt P14416); test: Binding affinity for human cloned Dopamine receptor D2L
[7] = molecular target: T4, 5-hydroxytryptamine receptor 1A (Homo sapiens, UniProt P08908); test: Binding affinity for human cloned 5-hydroxytryptamine 1A receptor
T4 sequence (P08908 whole entry): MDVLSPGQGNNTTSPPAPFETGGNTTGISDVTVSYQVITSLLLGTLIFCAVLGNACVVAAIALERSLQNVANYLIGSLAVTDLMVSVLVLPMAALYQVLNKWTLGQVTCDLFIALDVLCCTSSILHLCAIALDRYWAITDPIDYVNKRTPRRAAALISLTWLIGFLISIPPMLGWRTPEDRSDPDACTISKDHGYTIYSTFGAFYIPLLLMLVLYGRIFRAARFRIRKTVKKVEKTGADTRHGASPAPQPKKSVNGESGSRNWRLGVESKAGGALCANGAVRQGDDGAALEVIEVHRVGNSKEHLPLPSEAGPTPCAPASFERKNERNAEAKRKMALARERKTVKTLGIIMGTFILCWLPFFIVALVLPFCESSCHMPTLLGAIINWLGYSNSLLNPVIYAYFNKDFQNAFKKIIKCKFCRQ

[8] = molecular target: T5, Alpha-2A adrenergic receptor (Homo sapiens, UniProt P08913); test: Binding affinity for human cloned Alpha-2A adrenergic receptor
T5 sequence (P08913 whole entry): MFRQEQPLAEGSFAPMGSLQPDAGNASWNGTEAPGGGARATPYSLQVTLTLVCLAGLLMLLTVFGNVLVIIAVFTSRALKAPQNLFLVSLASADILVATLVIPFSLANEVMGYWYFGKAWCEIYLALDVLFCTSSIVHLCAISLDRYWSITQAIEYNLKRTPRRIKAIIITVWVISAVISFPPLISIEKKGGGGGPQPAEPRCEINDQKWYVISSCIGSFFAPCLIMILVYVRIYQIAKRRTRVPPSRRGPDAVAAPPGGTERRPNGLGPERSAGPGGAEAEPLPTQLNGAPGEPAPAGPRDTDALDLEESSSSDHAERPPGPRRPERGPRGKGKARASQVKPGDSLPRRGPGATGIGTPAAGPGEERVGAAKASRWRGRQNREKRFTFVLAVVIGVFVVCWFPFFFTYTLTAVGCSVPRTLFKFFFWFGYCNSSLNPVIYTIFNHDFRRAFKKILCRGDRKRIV

[9] = molecular target: T6, Alpha-1A adrenergic receptor (Homo sapiens, UniProt P35348); test: Binding affinity for human cloned Alpha-1A adrenergic receptor
T6 sequence (P35348 whole entry): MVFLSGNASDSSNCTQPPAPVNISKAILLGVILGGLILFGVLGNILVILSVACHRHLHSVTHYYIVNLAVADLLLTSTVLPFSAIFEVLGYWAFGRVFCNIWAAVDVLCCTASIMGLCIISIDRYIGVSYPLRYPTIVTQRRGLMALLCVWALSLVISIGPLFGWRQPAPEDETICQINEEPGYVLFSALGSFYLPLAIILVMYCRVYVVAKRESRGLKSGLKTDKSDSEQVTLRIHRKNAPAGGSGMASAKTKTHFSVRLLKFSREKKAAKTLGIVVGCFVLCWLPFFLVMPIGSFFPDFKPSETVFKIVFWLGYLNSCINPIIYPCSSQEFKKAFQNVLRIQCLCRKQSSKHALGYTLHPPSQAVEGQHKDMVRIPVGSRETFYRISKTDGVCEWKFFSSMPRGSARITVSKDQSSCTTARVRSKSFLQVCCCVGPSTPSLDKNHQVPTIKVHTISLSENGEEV

D(2) dopamine receptor [10] = molecular target: D(2) dopamine receptor (Rattus norvegicus, UniProt P61169); test: Binding affinity for rat Dopamine receptor D2
D(3) dopamine receptor = D(3) dopamine receptor (Homo sapiens, UniProt P35462); test: Binding affinity for human cloned Dopamine receptor D3
Sequence of D(3) dopamine receptor (P35462 whole entry): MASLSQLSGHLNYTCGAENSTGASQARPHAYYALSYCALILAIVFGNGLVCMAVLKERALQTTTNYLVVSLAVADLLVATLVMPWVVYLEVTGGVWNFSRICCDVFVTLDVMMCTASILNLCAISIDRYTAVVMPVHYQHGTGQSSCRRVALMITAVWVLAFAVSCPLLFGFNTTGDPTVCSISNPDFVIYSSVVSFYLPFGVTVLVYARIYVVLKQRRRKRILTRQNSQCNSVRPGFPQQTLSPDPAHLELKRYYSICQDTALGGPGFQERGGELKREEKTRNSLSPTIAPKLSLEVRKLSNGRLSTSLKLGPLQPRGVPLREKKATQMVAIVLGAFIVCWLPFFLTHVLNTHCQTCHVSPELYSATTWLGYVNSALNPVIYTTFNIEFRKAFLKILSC

Sequence of Histamine H1 receptor (P35367 whole entry): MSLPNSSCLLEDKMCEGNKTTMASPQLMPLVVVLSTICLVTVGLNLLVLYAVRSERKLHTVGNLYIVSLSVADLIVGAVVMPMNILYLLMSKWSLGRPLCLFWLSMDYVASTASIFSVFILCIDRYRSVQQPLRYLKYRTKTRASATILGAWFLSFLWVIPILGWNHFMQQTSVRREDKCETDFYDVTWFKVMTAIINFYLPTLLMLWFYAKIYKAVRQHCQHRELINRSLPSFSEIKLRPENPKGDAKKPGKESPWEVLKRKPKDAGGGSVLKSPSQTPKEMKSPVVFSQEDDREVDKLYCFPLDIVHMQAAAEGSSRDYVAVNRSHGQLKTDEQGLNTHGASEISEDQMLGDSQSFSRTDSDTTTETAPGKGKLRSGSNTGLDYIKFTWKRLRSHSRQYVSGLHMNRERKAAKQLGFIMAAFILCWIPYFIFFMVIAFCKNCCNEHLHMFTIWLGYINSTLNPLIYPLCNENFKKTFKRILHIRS
Sequence of 5-hydroxytryptamine receptor 2A (P28223 whole entry): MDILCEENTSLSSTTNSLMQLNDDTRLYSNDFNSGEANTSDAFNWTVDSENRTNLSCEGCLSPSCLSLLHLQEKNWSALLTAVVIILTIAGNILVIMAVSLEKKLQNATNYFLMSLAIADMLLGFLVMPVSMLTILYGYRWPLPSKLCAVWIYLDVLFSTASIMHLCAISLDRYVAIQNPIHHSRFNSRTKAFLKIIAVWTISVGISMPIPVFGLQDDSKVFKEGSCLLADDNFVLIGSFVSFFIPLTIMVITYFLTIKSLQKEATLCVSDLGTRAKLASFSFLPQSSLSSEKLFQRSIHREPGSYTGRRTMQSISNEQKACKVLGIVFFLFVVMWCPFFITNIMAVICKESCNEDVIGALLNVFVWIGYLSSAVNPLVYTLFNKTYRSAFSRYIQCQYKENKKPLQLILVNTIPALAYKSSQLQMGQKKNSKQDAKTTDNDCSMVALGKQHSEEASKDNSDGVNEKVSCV
Sequence of 5-hydroxytryptamine receptor 1D (P28221 whole entry): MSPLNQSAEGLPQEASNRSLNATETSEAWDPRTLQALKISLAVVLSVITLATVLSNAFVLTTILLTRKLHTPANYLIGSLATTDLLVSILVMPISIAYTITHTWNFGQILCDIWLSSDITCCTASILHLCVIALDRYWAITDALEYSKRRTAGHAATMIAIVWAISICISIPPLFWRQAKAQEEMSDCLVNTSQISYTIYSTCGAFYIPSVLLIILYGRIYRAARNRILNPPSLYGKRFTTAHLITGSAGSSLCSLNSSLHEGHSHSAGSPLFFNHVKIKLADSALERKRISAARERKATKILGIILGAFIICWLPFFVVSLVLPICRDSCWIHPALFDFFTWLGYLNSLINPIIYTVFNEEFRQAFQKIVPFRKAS
Sequence of D(2) dopamine receptor (Homo sapiens, UniProt P14416) (P14416 whole entry): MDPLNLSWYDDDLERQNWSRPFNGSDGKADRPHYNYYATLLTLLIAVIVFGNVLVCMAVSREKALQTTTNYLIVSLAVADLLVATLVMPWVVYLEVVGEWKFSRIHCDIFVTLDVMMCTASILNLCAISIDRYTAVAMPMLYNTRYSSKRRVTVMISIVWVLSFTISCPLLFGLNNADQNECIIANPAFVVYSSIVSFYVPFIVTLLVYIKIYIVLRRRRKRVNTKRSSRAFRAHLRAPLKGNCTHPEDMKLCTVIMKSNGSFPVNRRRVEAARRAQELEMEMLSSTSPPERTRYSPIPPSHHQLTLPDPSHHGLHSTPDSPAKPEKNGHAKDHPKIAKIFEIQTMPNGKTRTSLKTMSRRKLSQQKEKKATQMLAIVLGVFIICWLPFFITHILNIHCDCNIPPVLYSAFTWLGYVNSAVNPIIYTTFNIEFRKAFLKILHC
Sequence of D(2) dopamine receptor (Rattus norvegicus, UniProt P61169) (P61169 whole entry): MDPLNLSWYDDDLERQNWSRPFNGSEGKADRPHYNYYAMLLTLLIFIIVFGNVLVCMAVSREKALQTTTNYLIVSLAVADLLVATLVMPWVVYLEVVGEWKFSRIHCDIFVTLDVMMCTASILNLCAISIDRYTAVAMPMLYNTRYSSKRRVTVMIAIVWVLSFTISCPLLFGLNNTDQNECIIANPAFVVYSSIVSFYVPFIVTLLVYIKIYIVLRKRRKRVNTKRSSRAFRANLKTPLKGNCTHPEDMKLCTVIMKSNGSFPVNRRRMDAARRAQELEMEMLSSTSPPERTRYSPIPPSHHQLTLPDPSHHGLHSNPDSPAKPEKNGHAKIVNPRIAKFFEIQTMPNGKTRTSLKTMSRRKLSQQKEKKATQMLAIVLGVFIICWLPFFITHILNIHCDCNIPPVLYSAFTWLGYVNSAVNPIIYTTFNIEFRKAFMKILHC

Molecule `c1ccc2c(c1)Cc1ccccc1N1OC(CN3CCOCC3)CC21` (stereo not drawn) has an IC50 [1] greater than 1000 nM, an IC50 [2] of 141 nM and an ED50 (Rattus norvegicus) of 2.5 mg/kg. It also gave an IC50 (Histamine H1 receptor) of 26.3 nM.
`c1ccc(N2CCN(CC3CC4c5ccccc5Cc5ccccc5N4O3)CC2)cc1` (stereo not drawn) showed an IC50 [1] greater than 1000 nM, an IC50 [2] greater than 1000 nM and an IC50 (Histamine H1 receptor) greater than 1000 nM.
`CN(C)CCCC1CC2c3ccccc3Cc3ccccc3N2O1` (stereo not drawn) showed an IC50 [1] of 18.6 nM, an IC50 [2] of 3.89 nM and an ED50 [3] greater than 2.5 mg/kg. For the same molecule, the IC50 (Histamine H1 receptor) was 676 nM.
`CN(C)CC1(C)CC2c3ccccc3Cc3ccccc3N2O1` (stereo in doubt; cis) [listing 1 of 2 here] gave an ED50 [3] greater than 2.5 mg/kg.
`CN(C)CCCCC1CC2c3ccccc3Cc3ccccc3N2O1` (stereo not drawn) was tested, and the IC50 [1] was greater than 1000 nM, the IC50 [2] was greater than 1000 nM and the ED50 [3] was greater than 2.5 mg/kg. The IC50 (Histamine H1 receptor) was greater than 1000 nM.
`CN(C)CC1(C)CC2c3ccccc3Cc3ccccc3N2O1` (stereo in doubt; cis) [listing 2 of 2 here] was tested, and the IC50 [1] was 13.8 nM, the IC50 [2] was 57.5 nM and the IC50 (Histamine H1 receptor) was 1.66 nM.
In the case of `CCN(CC)CC1CC2c3ccccc3Cc3ccccc3N2O1` (stereo not drawn), the IC50 [1] is reported as 14.5 nM, the IC50 [2] is reported as 42.7 nM and the ED50 [3] is reported as 2.5 mg/kg. The IC50 (Histamine H1 receptor) was 13.5 nM.
With `Clc1cccc(N2CCN(CC3CC4c5ccccc5Cc5ccccc5N4O3)CC2)c1` (stereo not drawn) the IC50 [1] was greater than 1000 nM, the IC50 [2] was greater than 1000 nM and the ED50 [3] was greater than 2.5 mg/kg. For the same molecule, the IC50 (Histamine H1 receptor) was greater than 1000 nM.
Molecule `CN1CCN2c3ccccc3Cc3ccccc3C2C1` (stereo not drawn) [MIANSERIN] has an IC50 [4] of 380 nM, an IC50 [5] of 42.7 nM and an ED50 [3] of 2.5 mg/kg. The ED50 (Rattus norvegicus) was 0.16 mg/kg and the IC50 (D(2) dopamine receptor [6]) was 7080 nM.
`CN(C)CCC1CC2c3ccccc3Cc3ccccc3N2O1` (stereo not drawn) was tested, and the IC50 [7] was greater than 1000 nM, the IC50 [4] was greater than 1000 nM and the IC50 [1] was 37.2 nM. It also gave an IC50 [2] of 91.2 nM, an IC50 [8] greater than 1000 nM and an IC50 [9] of 1910 nM. For the same molecule, the IC50 [5] was greater than 1000 nM, the IC50 (D(2) dopamine receptor [10]) was greater than 1000 nM and the IC50 (D(3) dopamine receptor) was greater than 1000 nM. The ED50 [3] was 2.5 mg/kg, the ED50 (Rattus norvegicus) was 2.5 mg/kg and the IC50 (D(2) dopamine receptor [6]) was 9550 nM. It also gave an IC50 (Histamine H1 receptor) of 83.2 nM.
Work on `NCC1CC2c3ccccc3Cc3ccccc3N2O1` (stereo not drawn) yielded an IC50 [1] of 5.62 nM, an IC50 [2] of 15.8 nM and an ED50 [3] greater than 2.5 mg/kg. It also gave an IC50 (Histamine H1 receptor) of 200 nM.
Molecule `O=C1c2ccccc2C(=O)N1CC1CC2c3ccccc3Cc3ccccc3N2O1` (stereo not drawn) has an IC50 [1] greater than 1000 nM, an IC50 [2] greater than 1000 nM and an ED50 [3] greater than 2.5 mg/kg. The IC50 (Histamine H1 receptor) was greater than 1000 nM.
